Data as given in ChEMBL document CHEMBL1134784, “Synthesis and screening for antiacetylcholinesterase activity of (1-benzyl-4-oxopiperidin-3-ylidene)methylindoles and -pyrroles related to donepezil” (J Med Chem, 2001).

Each compound was assayed against Acetylcholinesterase (Homo sapiens, UniProt P22303).
Sequence of Acetylcholinesterase (P22303 whole entry): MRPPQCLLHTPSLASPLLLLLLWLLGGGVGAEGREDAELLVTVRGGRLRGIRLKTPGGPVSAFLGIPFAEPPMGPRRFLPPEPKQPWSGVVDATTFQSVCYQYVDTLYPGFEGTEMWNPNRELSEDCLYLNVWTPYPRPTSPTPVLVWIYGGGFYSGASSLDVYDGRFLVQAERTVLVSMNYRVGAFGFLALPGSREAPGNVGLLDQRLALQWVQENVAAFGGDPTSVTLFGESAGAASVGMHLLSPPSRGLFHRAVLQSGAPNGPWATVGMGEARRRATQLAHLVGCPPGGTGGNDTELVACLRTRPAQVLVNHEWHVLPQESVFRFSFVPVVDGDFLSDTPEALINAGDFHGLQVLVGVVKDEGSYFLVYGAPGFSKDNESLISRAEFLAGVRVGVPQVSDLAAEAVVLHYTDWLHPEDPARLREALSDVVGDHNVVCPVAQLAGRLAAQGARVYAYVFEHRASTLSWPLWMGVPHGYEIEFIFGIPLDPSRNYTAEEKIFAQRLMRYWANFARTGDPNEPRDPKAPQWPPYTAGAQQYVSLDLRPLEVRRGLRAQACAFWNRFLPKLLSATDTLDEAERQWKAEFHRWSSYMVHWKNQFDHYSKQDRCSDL
Description: Inhibitory concentration required against acetylcholinesterase activity

Row | SMILES | IC50
1 | O=C1CCN(Cc2ccccc2)C/C1=C\c1ccn(C(=O)c2ccccc2)c1 | 30 µM
2 | O=C1CCN(Cc2ccccc2)C/C1=C\c1cc[nH]c1 | 6 µM
3 | N#Cc1ccc(C(=O)n2cc(/C=C3\CN(Cc4ccccc4)CCC3=O)c3ccccc32)cc1 | 20 µM
4 | O=C1CCN(Cc2ccccc2)C/C1=C\c1cn(C(=O)c2ccc([N+](=O)[O-])cc2)c2ccccc12 | 50 µM
5 | COc1ccc2c(c1)c(/C=C1\CN(Cc3ccccc3)CCC1=O)cn2C(=O)c1ccccc1 | 80 µM
6 | O=C1CCN(Cc2ccccc2)C/C1=C\c1ccc[nH]1 | 11 µM
7 | O=C1CCN(Cc2ccccc2)C/C1=C\c1cn(Cc2ccccc2)c2ccccc12 | > 100 µM
8 | Cc1[nH]c(C)c(/C=C2\CN(Cc3ccccc3)CCC2=O)c1C=O | 30 µM
9 | COc1ccc(C(=O)n2cc(/C=C3\CN(Cc4ccccc4)CCC3=O)c3ccccc32)cc1 | 70 µM
10 | O=C1CCN(Cc2ccccc2)C/C1=C\c1cn(C(=O)c2ccccc2)c2ccccc12 | 70 µM
11 | O=C1CCN(Cc2ccccc2)C/C1=C\c1cn(C(=O)c2ccc(Cl)cc2)c2ccccc12 | 50 µM
12 | COc1ccc2[nH]cc(/C=C3\CN(Cc4ccccc4)CCC3=O)c2c1 | 6 µM
13 | CC(=O)n1cc(/C=C2\CN(Cc3ccccc3)CCC2=O)c2ccccc21 | 11 µM
14 | O=C1CCN(Cc2ccccc2)C/C1=C\c1c[nH]c2ccc(OCc3ccccc3)cc12 | 25 µM
15 | O=C1CCN(Cc2ccccc2)C/C1=C\c1cccn1C(=O)c1ccccc1 | 30 µM
16 | O=C1/C(=C/c2cc[nH]c2)CN(Cc2ccccc2)C/C1=C\c1cc[nH]c1 | 6 µM
17 | O=C1CCN(Cc2ccccc2)C/C1=C\c1cn(C(=O)c2ccc(F)cc2)c2ccccc12 | 60 µM
18 | O=C1CCN(Cc2ccccc2)C/C1=C\c1c[nH]c2ccccc12 | 8 µM
19 | CC(C)(C)OC(=O)n1cc(/C=C2\CN(Cc3ccccc3)CCC2=O)c2ccccc21 | 30 µM
20 | O=C1/C(=C/c2ccc[nH]2)CN(Cc2ccccc2)C/C1=C\c1ccc[nH]1 | 18 µM
